Entries after “also recorded” stand apart in the source; their conditions may differ. Where two headings read alike, the source gives them in different places.
Tests used:
[1] = tested on: MDA-MB-231 breast cancer cells; format: cell-based
Method: The effectiveness of TOL has been tested using an in vitro model for breast cancer. MDA-MB-231 breast cancer cells were cultured to complete confluency in 96-well plates. These breast cancer cells are known to over-express VGSCs by 1400-fold. These cells were exposed to Dulbecco's modified Eagle's medium (DMEM), or the cardiac glycoside drugs (known sodium pump inhibitors) ouabain (10 pM-100 nM; Sigma Chemical Co., St. Louis, Mo.) or digitoxin (100 pM-1 μM; Sigma) dissolved in DMEM for 30 min. After exposure to the sodium pump inhibitors, an electric current (0 V, 100 mV, or 1 V DC) was passed across the cells using an anode and a cathode placed touching the bottom of each well or an etched circuit in the bottom of the plate. The electric current was generated using a Grass Model SD9 stimulator (Grass Instruments, Quincy, Mass.) through platinum wire electrodes.
Initially we cultured MDA-MB-231 (ATCC, Manassas, Va., cat #HTB-26) breast cancer cells to complete confluency in 96-well plates. These cells over-express VGSCs by 100-fold. […] An electric current (0 V, 100 mV, or 1 V DC) was passed across the cells by means of an anode and a cathode placed touching the bottom of each well as in Example 1.

[2] = tested on: LNCaP (prostate cancer); assay: Time to lysis of cultured cancer cells (drug + electrical stimulation); format: cell-based; settings: 2 V DC, 200 pulses per second, 5 min limit
Text: (§1) We also used two cardiac glycoside drugs that are currently FDA-approved for clinical use, ouabain and digoxin, for in vitro lysis of multiple lines of carcinoma. […] Cell lines were: MDA-MB-231 (breast cancer); MCF-7 (breast cancer; ATCC# HTB-22); LNCaP (prostate cancer; ATCC# CRL-1740); DU145 (prostate cancer; ATCC# HTB-81); MCA-38 (colon cancer; from Dr. Augusto Ochoa); A549 (non-small cell lung cancer; ATCC# CCL-185); and 3LL (non-small cell lung cancer; from Dr. Augusto Ochoa, Louisiana State University, New Orleans, La.). Cells were plated in 35 mm diameter culture dishes in Dulbecco's Modified Eagle's Medium (DMEM, Gibco) supplemented with 4 mM L-glutamine, 1 mM sodium pyruvate and 10 μM insulin for 18-24 hr. […] A 2 V DC current, 200 pulses per second was passed across individual cells using a Grass Model SD9 stimulator (Grass Instruments, Quincy, Mass.) through platinum wire electrodes held in place with a David Kopf Instrument micromanipulator (Tarzana, Calif.), and the time to lysis was measured. Video recordings of representative experiments were prepared digitally using a Canon Vixia HFM400 camera attached to Leica DM IL microscope, and are available upon request. […] All of the cancer cells lysed, with the time to lysis faster for the cells with the largest known expression of VGSCs.

[3] = tested on: MDA-MB-231 (breast cancer); assay: as above; format: cell-based; settings: 2 V DC, 200 pulses per second, 5 min limit
Text: as §1

[4] = tested on: 3LL (non-small cell lung cancer); assay: as above; format: cell-based; settings: 2 V DC, 200 pulses per second, 5 min limit
Text: as §1

[5] = tested on: MCA-38 (colon cancer); assay: as above; format: cell-based; settings: 2 V DC, 200 pulses per second, 5 min limit
Text: as §1

[6] = tested on: DU145 (prostate cancer); assay: as above; format: cell-based; settings: 2 V DC, 200 pulses per second, 5 min limit
Text: as §1

[7] = tested on: muscle, peripheral nerves, heart, and brain; format: in vivo, J/Nu mice
Method: As an in vivo model of cancer, MDA-MB-231 cells were suspended in matrigel and injected subcutaneously into the backs of 5 nude (J-NU) mice. Each mouse developed 0.75-1.2 cm tumors in 3-5 weeks. The mice were then injected subcutaneously with 10 mg/kg ouabain or saline. After 30 min, the mice were anesthetized with 4% isoflurane, and the tumors exposed through a small incision in the skin. An anode and a cathode were inserted into each tumor, and a train of 120 1 V DC pulses (10 msec, 2 Hz for 1 min) was delivered through the anode and cathode as discussed above. A total of 11 tumors were tested. Three tumors were from mice treated with ouabain and electrically stimulated (O-ES experimental). Of the rest, two were from a mouse treated with saline and not electrically stimulated (S-NS control), three were from mice treated with ouabain but not electrically stimulated (O-NS control), and three were from mice treated with saline and electrically stimulated (S-ES control). The electrical stimulation was repeated 15 and 30 min later. One day later, mice were sacrificed with an overdose of Nat pentobarbital, perfused with 4% buffered paraformaldehyde, and the tumors removed. The tumors were sectioned at 5 μm and stained with hematoxylin and eosin. […]

[8] = tested on: MDA-MB-231 breast cancer cells; assay: cells; format: cell-based; settings: alamar blue added after 1 hr, read 4 hr later
Method: The effect of the combination of ouabain (a sodium pump inhibitor) and veratridine (a sodium […]) on viability of cultured MDA-MB-231 and MCF-7 breast cancer cells was assessed. The former cells over-express VGSCs by more than 1000-fold, whereas the latter cells over-express VGSCs by 100-fold (24). MDA-MB-231 cells were cultured in DMEM, whereas MCF-7 cells were cultured in DMEM+10 μM insulin. After centrifugation, both cell lines were re-suspended in DMEM+10 μM insulin to assure normal functioning of Na^+, K^+-ATPase, and approximately 5000 cells were added to each well in a 96-well plate in a volume of 100 μl. After 18 hr, the media was aspirated, and the cells were treated with 100 μl DMEM+10 μM insulin (“media”) alone, media+100 nM ouabain, media+30 μM veratridine, or media+100 nM ouabain+30 μM veratridine. After 1 hr, […] alamar blue was added to each well, and cell viability determined 4 hr after this addition. All determinations were obtained in quadruplicate, and the experiment repeated three times. […] Veratridine alone reduced viability of MDL-MB-231 cells by 15% (FIG. 1) compared to media alone-treated cells. In this initial experiment, ouabain combined with veratridine produced a 30% reduction in cell viability. In MCF-7 cells, none of the treatments affected cell viability (Data not shown). […]

[9] = tested on: MDA-MB-231 tumors; assay: In vivo TOL in breast cancer xenografts, tumor histology (hematoxylin and eosin); design: species or system nude (J-NU) mice
Method: As an in vivo model of cancer, MDA-MB-231 cells were suspended in matrigel and injected subcutaneously into the backs of 5 nude (J-NU) mice. Each mouse developed 0.75-1.2 cm tumors in 3-5 weeks. The mice were then injected subcutaneously with 10 mg/kg ouabain or saline. After 30 min, the mice were anesthetized with 4% isoflurane, and the tumors exposed through a small incision in the skin. An anode and a cathode were inserted into each tumor, and a train of 120 1 V DC pulses (10 msec, 2 Hz for 1 min) was delivered through the anode and cathode as discussed above. A total of 11 tumors were tested. Three tumors were from mice treated with ouabain and electrically stimulated (O-ES experimental). Of the rest, two were from a mouse treated with saline and not electrically stimulated (S-NS control), three were from mice treated with ouabain but not electrically stimulated (O-NS control), and three were from mice treated with saline and electrically stimulated (S-ES control). The electrical stimulation was repeated 15 and 30 min later. One day later, mice were sacrificed with an overdose of Nat pentobarbital, perfused with 4% buffered paraformaldehyde, and the tumors removed. The tumors were sectioned at 5 μm and stained with hematoxylin and eosin. […] The other two mice in the O-ES group had tumors that were not highly vascularized, and thus the ouabain could not efficiently distribute to the tumor cells.
As an in vivo model of cancer, we injected 4 million MDA-MB-231 cells, suspended in matrigel, subcutaneously into the backs of 5 nude (J-NU) mice. Each mouse developed 0.75-1.2 cm tumors in 3-5 weeks. The mice were injected subcutaneously with 10 mg/kg ouabain or saline and then after 30 min anesthetized with 4% isoflurane. The tumors of the mice were exposed through a small incision in the skin. An anode and a cathode were inserted into each tumor, and a train of 120 1 V DC pulses (10 msec, 2 pulses per second for 1 min) using the Grass SD9 stimulator was delivered through a copper anode and cathode. Some controls received no stimulation. A total of 11 tumors were tested. Three tumors were from mice treated with 10 mg/kg s.c. ouabain and electrically stimulated (O-ES experimental). […]
This experiment was repeated using 10 mice (2 per control group and 4 in the experimental group.) Four million MDA-MB-231 cells suspended in 50% matrigel were injected s.c. in J/Nu mice, and tumors allowed to grow until visibly vascularized (reddish in appearance.) Stimulation parameters were 10 V DC, 1 msec pulses @ 200 pulses per second. […] One day later, animals were sacrificed, perfused, tumors removed, and prepared for hematoxylin and eosin staining Stained sections from each of the tumors were evaluated by a trained histologist.

[10] = tested on: A549 (non-small cell lung cancer); assay: Time to lysis of cultured cancer cells (drug + electrical stimulation); format: cell-based; settings: 100 nM ouabain, 2 V DC, 200 pulses per second, 5 min limit
Method: (§2) Cell lines were: MDA-MB-231 (breast cancer); MCF-7 (breast cancer; ATCC# HTB-22); LNCaP (prostate cancer; ATCC# CRL-1740); DU145 (prostate cancer; ATCC# HTB-81); MCA-38 (colon cancer; from Dr. Augusto Ochoa); A549 (non-small cell lung cancer; ATCC# CCL-185); and 3LL (non-small cell lung cancer; from Dr. Augusto Ochoa, Louisiana State University, New Orleans, La.). Cells were plated in 35 mm diameter culture dishes in Dulbecco's Modified Eagle's Medium (DMEM, Gibco) supplemented with 4 mM L-glutamine, 1 mM sodium pyruvate and 10 μM insulin for 18-24 hr. […] A 2 V DC current, 200 pulses per second was passed across individual cells using a Grass Model SD9 stimulator (Grass Instruments, Quincy, Mass.) through platinum wire electrodes held in place with a David Kopf Instrument micromanipulator (Tarzana, Calif.), and the time to lysis was measured. Video recordings of representative experiments were prepared digitally using a Canon Vixia HFM400 camera attached to Leica DM IL microscope, and are available upon request.

[11] = tested on: MCF-7 (breast cancer); assay: as above; format: cell-based; settings: 100 nM ouabain, 2 V DC, 200 pulses per second, 5 min limit
Method: as §2

[12] = tested on: MDA-MB-231 tumors; assay: Tumor growth following a single TOL treatment; format: in vivo, J/Nu mice; settings: single treatment Day 0: ouabain 10 mg/kg + 2×1 min electrical stimulation; cross-sectional area followed three weeks; p<0.01
Method: When vascularized tumors became apparent, mice were divided into 4 treatment groups: Saline-No stimulation; Saline-Stimulation (2×1 min electrical stimulation); Ouabain (10 mg/kg)-No stimulation; and Ouabain (10 mg/kg)-Stimulation (2×1 min electrical stimulation). Only a single treatment was given for each treatment group on Day 0 of FIG. 2. Tumor cross-sectional area was then measured with calipers every-other day for three weeks. The tumor growth was expressed as a percent pre-treatment size and plotted against time.

## C[C@H]1O[C@@H](O[C@H]2[C@@H](O)C[C@H](O[C@H]3[C@@H](O)C[C@H](O[C@H]4CC[C@@]5(C)[C@H](CC[C@@H]6[C@@H]5C[C@@H](O)[C@]5(C)[C@@H](C7=CC(=O)OC7)CC[C@]65O)C4)O[C@@H]3C)O[C@@H]2C)C[C@H](O)[C@@H]1O [digoxin]
[1]
  cancer cell death in wells: every cancer cell died; also recorded: all cancer cells died
[2]; 1 μM digoxin
  Mean time-to-lysis ± SEM, Digoxin + Stimulation: 122.9 ± 3.13 s
[3]; 1 μM digoxin 15-45 min
  Mean time-to-lysis ± SEM, Digoxin + Stimulation: 68.39 ± 7.31 s
[4]; 1 μM digoxin
  Mean time-to-lysis ± SEM, Digoxin + Stimulation: 163.75 ± 8.27 s
[5]; 1 μM digoxin
  Mean time-to-lysis ± SEM, Digoxin + Stimulation: 122.7 ± 9.02 s
[6]; 1 μM digoxin
  Mean time-to-lysis ± SEM, Digoxin + Stimulation: 111.3 ± 9.7 s

## C[C@@H]1O[C@@H](O[C@H]2C[C@@H](O)[C@]3(CO)[C@H]4[C@H](O)C[C@]5(C)[C@@H](C6=CC(=O)OC6)CC[C@]5(O)[C@@H]4CC[C@]3(O)C2)[C@H](O)[C@H](O)[C@H]1O [ouabain]
[7]; 10 mg/kg ouabain s.c., tissues electrically stimulated after 30 min, one day later
  lysis in healthy muscle, peripheral nerves, heart, and brain: None of these tissues showed signs of lysis
[7]; 10 mg/kg s.c. ouabain + electrical stimulation (1 V DC), same mouse as the tumor with 80% cell death
  cell death in normal muscle taken from the base of the tumor: no sign of cell death
[1]; ≧1 nM ouabain 30 min, then 100 mV or 1 V DC electric current, 6 of 24 wells (ouabain or digoxin)
  cancer cell death in wells: every cancer cell died; also recorded: all cancer cells died
[2]; 100 nM ouabain
  Mean time-to-lysis ± SEM, Ouabain + Stimulation: 143.1 ± 5.78 s
[3]; 100 nM ouabain 15-45 min
  Mean time-to-lysis ± SEM, Ouabain + Stimulation: 69.3 ± 4.82 s
[4]; 100 nM ouabain
  Mean time-to-lysis ± SEM, Ouabain + Stimulation: 115.9 ± 3.33 s
[5]; 100 nM ouabain
  Mean time-to-lysis ± SEM, Ouabain + Stimulation: 74.0 ± 1.0 s
[6]; 100 nM ouabain
  Mean time-to-lysis ± SEM, Ouabain + Stimulation: 81.6 ± 3.96 s
[8]; 100 nM ouabain alone
  change in cell viability compared to media-only controls: no decrease in cell viability
[9]; 10 mg/kg s.c. ouabain + electrical stimulation (1 V DC), the other two mice of the O-ES group
  lysis in tumors that were not highly vascularized: no lysis was seen
[9]; 10 mg/kg s.c. ouabain + electrical stimulation (120 1 V DC pulses, repeated 15 and 30 min later), one of three O-ES tumors, one day later
  tumor cell death after treatment: 80%
[9]; 10 mg/kg s.c. ouabain, no stimulation, three tumors, one day later
  cell lysis in tumors, ouabain without electrical stimulation (O-NS control): None of the tumors in any of the other three treatments showed any sign of cell lysis; also recorded: None of the tumors in any of the three control treatments showed any sign of cell lysis
[9]; repeat experiment, 10 mice, 2 per control group, 10 mg/kg s.c. ouabain
  lysis in control tumors (incl. ouabain without stimulation): none of the controls showed any sign of lysis
[10]
  Mean time-to-lysis ± SEM, Ouabain + Stimulation: 149.9 ± 11.70 s
[11]
  Mean time-to-lysis ± SEM, Ouabain + Stimulation: 170.5 ± 15.35 s
[12]
  tumor size smaller than in the three other groups: 70%

## COc1ccc(C(=O)O[C@H]2CC[C@@]3(C)[C@@H]4CC[C@H]5[C@]6(O)C[C@H](O)[C@@]7(O)[C@@H](CN8C[C@@H](C)CC[C@H]8[C@@]7(C)O)[C@]6(O)C[C@@]53O[C@]24O)cc1OC [veratridine]
[8]; Homo sapiens, 30 μM veratridine alone, read-out: reduction in cell viability compared to media alone
  cytotoxicity at 30 µM: 15%

— patent publication US8921320B2, “Targeted osmotic lysis of cancer cells” (Board of Supervisors of Louisiana State University and …, priority 2011, dated 2014)
